The target in one test is TrkA kinase (Homo sapiens, UniProt P04629). The experiment in a line: TrkA kinase biochemical activity assay (AlphaScreen). The conditions noted are these: 100 μM ATP; read-out: Biochemical Inhibition IC50 TrkA. Here is the method:
In one assay the biochemical activity IC50 values are determined with respect to inhibition of TrkA kinase activity, where inhibition of phosphorylation of a peptide substrate is measured as a function of compound concentration. Compounds to be tested, dissolved in DMSO (1 μL), are added to a white 384-well plate (Costar #3705). Working stocks of TrkA kinase (UBI), biotin-(E4Y)10 substrate (Upstate Biotech, Cat#12-440), and ATP (Sigma, Cat#A-3377) are prepared in 25 mM Hepes pH 7.5, 10 mM MnCl2, 1 mM DTT, 0.01% BSA, and 0.01% Tween-20. All components are added to the 384-well plate for a final concentration of 1 ng/well TrkA, 30 nM biotin-(E4Y)10 and 100 μM ATP in a volume of 20 μL. Each sample is at 5% DMSO. The plate is shaken for 1 minute at 1200 rpm, spun for 1 minute at 1000 rpm, then incubated for 40 minutes at room temperature. Just before use, working stocks of donor and acceptor beads from the AlphaScreen PY20 Detection Kit (PerkinElmer, Cat#676601M) are prepared in 25 mM Hepes pH 7.5, 100 mM EDTA. 0.01% BSA. Donor Beads solution (Streptavidin beads) is added (5 μL) to each well to final bead concentration of 10 μg/mL. The plate is incubated at room temperature for 20 minutes. Acceptor Beads solution (PY20 coated beads) are then added to each well (5 μL) to a final concentration of bead at 10 μg/mL. The plates are incubated at room temperature for 60 minutes. Fluorescence signal is recorded on the Envision reader. Phosphorylated substrate results in binding of the PY20 antibody and association of the donor and acceptor beads such that signal correlates with kinase activity. The signal vs. compound concentration is used to determine the IC50. Similar assays are used for TrkB and Trk C kinase.
On the technique in general: In Alpha technology, singlet oxygen from a donor bead excites a nearby acceptor bead.

For another test, the target named is Fms kinase (Homo sapiens, UniProt P07333). Briefly: Fms kinase biochemical activity assay (AlphaScreen, biotin-(E4Y)10 phosphorylation). The conditions noted are these: 100 μM ATP; read-out: Biochemical Inhibition IC50 Fms. Here is the method:
In one assay the biochemical activity IC50 values are determined with respect to inhibition of Fms kinase activity, where inhibition of phosphorylation of a peptide substrate is measured as a function of compound concentration. Compounds to be tested, dissolved in DMSO (1 μL), are added to a white 384-well plate (Costar #3705). Working stocks of Fms kinase (Invitrogen #PV3249), biotin-(E4Y)10 substrate (Upstate Biotech, Cat#12-440), and ATP (Sigma, Cat#A-3377) are prepared in 25 mM Hepes pH 7.5, 0.5 mM MgCl2, 2 mM MnCl2, 2 mM DTT, 0.01% BSA, and 0.01% Tween-20. All components are added to the 384-well plate for a final concentration of 1 ng/well Fms, 30 nM biotin-(E4Y)10 (Upstate Biotechnology) and 100 μM ATP in a volume of 20 μL. Each sample is at 5% DMSO. The plate is then incubated for 20 minutes at 30° C. Just before use, working stocks of donor and acceptor beads from the AlphaScreen PY20 Detection Kit (PerkinElmer, Cat#676601M) are prepared in 25 mM Hepes pH 7.5, pH 7.4, 100 mM EDTA, 0.01% BSA. To stop the reaction, the plate is uncovered in the dark and 5 μL of Donor Beads solution (Streptavidin beads) is added to each well. The plate is incubated at room temperature for 20 minutes. Five microliters of Acceptor Beads solution (PY20 coated beads) are then added to each well. The final concentration of each bead is 10 μg/mL. The plates are incubated at room temperature for 60 minutes. Fluorescence signal is recorded on the Envision reader. Phosphorylated substrate results in binding of the PY20 antibody and association of the donor and acceptor beads such that signal correlates with kinase activity. The signal vs. compound concentration is used to determine the IC50.

In another test the target is CYP2D6 (Homo sapiens, UniProt P10635). Briefly: CYP2D6 inhibition (fluorescent substrate AMMC). In kind it is in vitro ADME. The note with it: read-out: Cyp IC50 2D6. Here is the method: CYP (Cytochrome P450) enzymes are the major drug metabolizing enzymes present in the liver. The inhibition of CYP enzyme activity (IC50) for each of CYP1A2, CYP2C19, CYP2C9, CYP2D6, CYP3A4(BFC) and CYP3A4(BQ) is determined for compounds, where inhibition of metabolism of a known substrate leads to a decrease in the fluorescence of the metabolized product. The fluorescence of the product is monitored as a function of compound concentration. Compounds are dissolved in DMSO to a concentration of 100 mM. These are diluted 1 μL into 82 μL of acetonitrile. An 11 μL aliquot of this solution is then added to 204 μL of cofactor mix (1.3% NADPH Regeneration system Solution A, 1.04% NADPH Regeneration system Solution B from BD Biosciences, 5% acetonitrile and 0.05% DMSO). These are then serially diluted 1:1 (160 μL to 160 μL co-factor mix) for a total of 10 points. A 10 μL aliquot of this final mixture is dispensed into 384 well assay plates and incubated for 10 minutes at 37° C. […] Assay plates are incubated at 37° C. (CYP1A2-15 min; CYP2C9-45 min; CYP2C19, 2D6 and 3A4-30 min) and read in a Tecan Safire 2 plate reader (CYP1A2, 2C19 and 3A4 409 ex/460 em; CYP2C9 and 2D6 409 ex/530 em). The signal versus compound concentration is used to determine the IC50. The enzymes and substrates for this assay are obtained from BD Biosciences.
Sequence of CYP2D6 (P10635 whole entry): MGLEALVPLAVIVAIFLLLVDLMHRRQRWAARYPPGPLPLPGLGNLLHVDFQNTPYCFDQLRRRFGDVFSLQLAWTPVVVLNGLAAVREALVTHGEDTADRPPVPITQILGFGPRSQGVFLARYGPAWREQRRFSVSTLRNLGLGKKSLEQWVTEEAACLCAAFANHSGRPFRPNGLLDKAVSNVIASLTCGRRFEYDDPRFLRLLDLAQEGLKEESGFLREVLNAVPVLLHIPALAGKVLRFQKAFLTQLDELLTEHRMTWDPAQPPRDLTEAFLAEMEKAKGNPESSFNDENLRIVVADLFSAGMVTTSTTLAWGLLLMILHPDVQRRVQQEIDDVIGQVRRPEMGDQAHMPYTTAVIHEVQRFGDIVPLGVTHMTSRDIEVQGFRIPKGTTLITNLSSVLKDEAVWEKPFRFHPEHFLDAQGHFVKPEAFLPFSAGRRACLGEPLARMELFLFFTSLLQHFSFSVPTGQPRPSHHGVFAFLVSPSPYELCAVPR

Structures are written as SMILES. Some results are limits rather than exact numbers.

Sequence of Fms kinase (P07333 20-972): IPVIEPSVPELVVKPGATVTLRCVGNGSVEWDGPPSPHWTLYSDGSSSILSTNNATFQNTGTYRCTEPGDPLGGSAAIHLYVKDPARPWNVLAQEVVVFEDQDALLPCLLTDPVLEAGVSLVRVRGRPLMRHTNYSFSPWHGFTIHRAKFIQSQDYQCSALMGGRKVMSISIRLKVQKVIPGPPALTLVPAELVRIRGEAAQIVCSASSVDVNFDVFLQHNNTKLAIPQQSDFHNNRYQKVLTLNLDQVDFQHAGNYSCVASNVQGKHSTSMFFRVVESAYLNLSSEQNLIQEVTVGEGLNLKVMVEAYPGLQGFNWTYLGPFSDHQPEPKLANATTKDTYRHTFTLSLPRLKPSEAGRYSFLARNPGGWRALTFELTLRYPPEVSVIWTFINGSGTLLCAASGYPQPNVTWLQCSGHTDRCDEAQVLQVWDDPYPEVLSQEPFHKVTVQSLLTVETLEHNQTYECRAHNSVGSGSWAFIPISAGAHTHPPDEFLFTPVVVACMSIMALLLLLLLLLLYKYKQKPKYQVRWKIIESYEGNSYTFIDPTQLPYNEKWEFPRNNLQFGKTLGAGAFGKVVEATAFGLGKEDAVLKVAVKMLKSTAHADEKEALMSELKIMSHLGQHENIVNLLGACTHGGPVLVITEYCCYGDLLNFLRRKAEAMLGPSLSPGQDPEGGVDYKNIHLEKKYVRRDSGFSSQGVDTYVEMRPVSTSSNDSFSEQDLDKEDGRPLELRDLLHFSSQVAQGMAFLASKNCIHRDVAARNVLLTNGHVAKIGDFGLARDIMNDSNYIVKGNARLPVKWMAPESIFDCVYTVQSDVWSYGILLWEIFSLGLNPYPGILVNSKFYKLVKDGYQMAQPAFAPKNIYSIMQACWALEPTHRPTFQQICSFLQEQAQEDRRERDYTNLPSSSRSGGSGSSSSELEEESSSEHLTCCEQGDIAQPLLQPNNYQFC
Sequence of TrkA kinase (P04629 33-796): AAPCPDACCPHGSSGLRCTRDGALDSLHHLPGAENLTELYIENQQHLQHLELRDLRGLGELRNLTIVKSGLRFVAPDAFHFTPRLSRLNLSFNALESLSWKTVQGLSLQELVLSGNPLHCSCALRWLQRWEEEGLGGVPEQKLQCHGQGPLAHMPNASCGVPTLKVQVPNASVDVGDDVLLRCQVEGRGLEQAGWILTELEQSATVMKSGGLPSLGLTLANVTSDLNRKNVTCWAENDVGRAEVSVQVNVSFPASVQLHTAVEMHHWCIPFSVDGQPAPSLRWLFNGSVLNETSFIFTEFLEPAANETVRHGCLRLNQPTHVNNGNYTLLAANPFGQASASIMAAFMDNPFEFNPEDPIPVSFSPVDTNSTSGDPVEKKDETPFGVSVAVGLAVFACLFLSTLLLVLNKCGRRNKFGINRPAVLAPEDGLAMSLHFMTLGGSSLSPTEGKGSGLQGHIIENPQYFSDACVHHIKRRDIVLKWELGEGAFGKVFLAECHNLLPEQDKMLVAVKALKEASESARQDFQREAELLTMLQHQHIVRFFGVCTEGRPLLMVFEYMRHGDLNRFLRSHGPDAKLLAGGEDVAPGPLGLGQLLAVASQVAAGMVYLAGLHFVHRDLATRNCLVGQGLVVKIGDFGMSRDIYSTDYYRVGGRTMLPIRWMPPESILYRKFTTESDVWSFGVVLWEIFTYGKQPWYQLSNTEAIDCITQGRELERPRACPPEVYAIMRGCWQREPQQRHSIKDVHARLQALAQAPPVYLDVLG

Broadly, the IC50 is the concentration that gives 50% inhibition. For the compound `CCC(C)Nc1ncnc2[nH]cc(C(=O)c3ccc(Nc4ccc(OC)nc4)nc3F)c12` (stereo not drawn) [Compound P-4078, [2-fluoro-6-[(6-methoxy-3-pyridyl)amino]-3-pyridyl]-[4-(sec-butylamino)-7H-pyrrolo[2,3-d]pyrimidin-5-yl]methanone], the IC50 on TrkA kinase was < 0.01 µM; on Fms kinase, < 0.01 µM; at CYP2D6, > 10 µM.

With `COCCCNc1ncnc2[nH]cc(C(=O)c3ccc(Nc4ccc(OC)nc4)nc3F)c12` [Compound P-4079, [2-fluoro-6-[(6-methoxy-3-pyridyl)amino]-3-pyridyl]-[4-(3-methoxypropylamino)-7H-pyrrolo[2,3-d]pyrimidin-5-yl]methanone], the figures for the 50% inhibitory concentration (IC50) at TrkA kinase, on Fms kinase and on CYP2D6 were < 0.01 µM, < 0.01 µM and > 10 µM, respectively.

On to `CCCCNc1ncnc2[nH]cc(C(=O)c3ccc(Nc4ccc(OC)nc4)nc3F)c12` [Compound P-4080, [4-(butylamino)-7H-pyrrolo[2,3-d]pyrimidin-5-yl]-[2-fluoro-6-[(6-methoxy-3-pyridyl)amino]-3-pyridyl]methanone], for which the IC50 is < 0.01 µM at TrkA kinase, < 0.01 µM at Fms kinase and > 10 µM on CYP2D6.

Consider `CCNc1ncnc2[nH]cc(C(=O)c3ccc(Nc4ccc(OC)nc4)nc3F)c12` [Compound P-4081, [4-(ethylamino)-7H-pyrrolo[2,3-d]pyrimidin-5-yl]-[2-fluoro-6-[(6-methoxy-3-pyridyl)amino]-3-pyridyl]methanone], for which the IC50 at TrkA kinase was < 0.01 µM; on Fms kinase, < 0.01 µM; at CYP2D6 it was > 10 µM.

Regarding `COc1ccc(Nc2ccc(C(=O)c3c[nH]c4ncnc(NC5CCCCC5)c34)c(F)n2)cn1` [Compound P-4082, [4-(cyclohexylamino)-7H-pyrrolo[2,3-d]pyrimidin-5-yl]-[2-fluoro-6-[(6-methoxy-3-pyridyl)amino]-3-pyridyl]methanone], the IC50 was < 0.01 µM at TrkA kinase, < 0.1 µM at Fms kinase and > 10 µM at CYP2D6.

For the compound `CNc1ncnc2[nH]cc(C(=O)c3ccc(Nc4ccc(OC)nc4)nc3F)c12` [Compound P-4083, [2-fluoro-6-[(6-methoxy-3-pyridyl)amino]-3-pyridyl]-[4-(methylamino)-7H-pyrrolo[2,3-d]pyrimidin-5-yl]methanone], the figures for the IC50 at TrkA kinase, on Fms kinase and at CYP2D6 were < 0.01 µM, < 0.01 µM and > 10 µM, respectively.

As for `COc1ccc(Nc2ccc(C(=O)c3c[nH]c4ncnc(NCC(F)(F)F)c34)c(F)n2)cn1` [Compound P-4084, [2-fluoro-6-[(6-methoxy-3-pyridyl)amino]-3-pyridyl]-[4-(2,2,2-trifluoroethylamino)-7H-pyrrolo[2,3-d]pyrimidin-5-yl]methanone], the IC50 on TrkA kinase was < 0.01 µM; on Fms kinase it was < 0.01 µM; at CYP2D6, > 10 µM.

For the compound `O=C(c1ccc(NC2CCC(F)(F)CC2)nc1)c1c[nH]c2ncnc(NCC(F)(F)F)c12` [Compound P-4087, [6-[(4,4-difluorocyclohexyl)amino]-3-pyridyl]-[4-(2,2,2-trifluoroethylamino)-7H-pyrrolo[2,3-d]pyrimidin-5-yl]methanone], the values for the concentration for half-maximal inhibition (IC50) at TrkA kinase, at Fms kinase and at CYP2D6 were < 0.01 µM, < 0.1 µM and > 10 µM, respectively.

In the case of `O=C(c1ccc(NC2CCC(F)(F)CC2)nc1)c1c[nH]c2ncnc(NC3CC3)c12` [Compound P-4088, [4-(cyclopropylamino)-7H-pyrrolo[2,3-d]pyrimidin-5-yl]-[6-[(4,4-difluorocyclohexyl)amino]-3-pyridyl]methanone], the IC50 on TrkA kinase was < 0.01 µM; on Fms kinase it was < 0.1 µM; on CYP2D6, > 10 µM.

Regarding `CNc1ncnc2[nH]cc(C(=O)c3ccc(NC4CCC(F)(F)CC4)nc3)c12` [Compound P-4089, [6-[(4,4-difluorocyclohexyl)amino]-3-pyridyl]-[4-(methylamino)-7H-pyrrolo[2,3-d]pyrimidin-5-yl]methanone], the IC50 at TrkA kinase was < 0.1 µM; on Fms kinase, < 0.1 µM; on CYP2D6, > 10 µM.

As to `O=C(c1ccc(Nc2ccc(C3CC3)nc2)nc1F)c1c[nH]c2ncnc(NCC(F)(F)F)c12` [Compound P-4090, [6-[(6-cyclopropyl-3-pyridyl)amino]-2-fluoro-3-pyridyl]-[4-(2,2,2-trifluoroethylamino)-7H-pyrrolo[2,3-d]pyrimidin-5-yl]methanone], the IC50 on TrkA kinase was < 0.1 µM; at Fms kinase, < 0.1 µM; on CYP2D6, > 10 µM.

`O=C(c1ccc(Nc2ccc(C(F)(F)F)nc2)nc1F)c1c[nH]c2ncnc(NC3CC3)c12` [Compound P-4091, [4-(cyclopropylamino)-7H-pyrrolo[2,3-d]pyrimidin-5-yl]-[2-fluoro-6-[[6-(trifluoromethyl)-3-pyridyl]amino]-3-pyridyl]methanone]: the half-maximal inhibitory concentration (IC50) on TrkA kinase is < 0.01 µM; at Fms kinase, < 0.1 µM; on CYP2D6 it was > 10 µM.

As for `CNc1ncnc2[nH]cc(C(=O)c3ccc(Nc4ccc(C(F)(F)F)nc4)nc3F)c12` [Compound P-4092, [2-fluoro-6-[[6-(trifluoromethyl)-3-pyridyl]amino]-3-pyridyl]-[4-(methylamino)-7H-pyrrolo[2,3-d]pyrimidin-5-yl]methanone], the IC50 on TrkA kinase is < 0.01 µM; at Fms kinase, < 0.01 µM; on CYP2D6 it was < 5 µM.

For `O=C(c1ccc(Nc2ccc(C3CC3)nc2)nc1F)c1c[nH]c2ncnc(NC3CC3)c12` [Compound P-4093, [4-(cyclopropylamino)-7H-pyrrolo[2,3-d]pyrimidin-5-yl]-[6-[(6-cyclopropyl-3-pyridyl)amino]-2-fluoro-3-pyridyl]methanone], the results for the concentration for half-maximal inhibition (IC50) on TrkA kinase, at Fms kinase and on CYP2D6 were < 0.01 µM, < 0.01 µM and > 10 µM, respectively.

As to `CNc1ncnc2[nH]cc(C(=O)c3ccc(Nc4ccc(C5CC5)nc4)nc3F)c12` [Compound P-4094, [6-[(6-cyclopropyl-3-pyridyl)amino]-2-fluoro-3-pyridyl]-[4-(methylamino)-7H-pyrrolo[2,3-d]pyrimidin-5-yl]methanone], the concentration for half-maximal inhibition (IC50) is < 0.01 µM on TrkA kinase, < 0.01 µM at Fms kinase and < 5 µM on CYP2D6.

With `CCc1ccc(Nc2ccc(C(=O)c3c[nH]c4ncnc(NC5CCC5)c34)c(F)n2)cn1` [Compound P-4095, [4-(cyclobutylamino)-7H-pyrrolo[2,3-d]pyrimidin-5-yl]-[6-[(6-ethyl-3-pyridyl)amino]-2-fluoro-3-pyridyl]methanone], the IC50 at TrkA kinase was < 0.01 µM; at Fms kinase it was < 0.01 µM; on CYP2D6 it was > 10 µM.
